The test deals with T1, Hno (6-hydroxynicotine oxidase), recombinant His-tagged.
T1 construct: N-terminal His tag (pETDuet-1), E. coli BL21 (DE3); FAD-containing; about 50 kDa on SDS-PAGE
The test can be described thus: UV-visible spectrophotometry at […] nm (6-hydroxypseudooxynicotine formation). Particulars: 37 °C, pH 9.2, 100 mM glycine-NaOH buffer; O2 as electron acceptor; read-out: apparent K m. The class given is biochemical, Agrobacterium tumefaciens.

As for `CN1CCC[C@H]1c1ccc(O)nc1` [6-hydroxynicotine], the Km came to 67 ± 1 µM.
